The values that follow come from BindingDB's records for doi:10.1016/j.bmcl.2010.06.084 (Phenex Pharmaceuticals, 2010).

As a reminder, the EC50 is the concentration needed to bring the measured effect to its halfway point.

Bounds are passed on as bounds.

For this data set, the target named is T1, Nuclear receptor subfamily 1 group I member 2 (Homo sapiens, UniProt O75469).
T1 sequence (O75469 whole entry): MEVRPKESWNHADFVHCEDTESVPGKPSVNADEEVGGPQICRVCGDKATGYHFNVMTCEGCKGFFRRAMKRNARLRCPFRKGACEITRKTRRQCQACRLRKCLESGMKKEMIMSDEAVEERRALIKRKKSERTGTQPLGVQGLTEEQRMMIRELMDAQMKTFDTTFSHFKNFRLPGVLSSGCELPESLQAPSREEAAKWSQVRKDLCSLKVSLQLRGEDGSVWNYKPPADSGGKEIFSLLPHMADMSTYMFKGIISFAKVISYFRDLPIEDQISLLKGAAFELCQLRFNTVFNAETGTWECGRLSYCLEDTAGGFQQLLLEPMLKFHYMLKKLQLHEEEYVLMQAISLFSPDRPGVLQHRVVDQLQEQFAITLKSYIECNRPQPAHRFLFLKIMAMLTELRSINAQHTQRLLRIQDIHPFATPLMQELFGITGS
The experiment in a line: Agonist activity at PXR-LBD expressed in HEK293 cells assessed as Gal4-DBD interaction by cellular mammalian one hybrid assay.
As for `CN(Cc1cccc(C(=O)O)c1)c1ccc(OCc2c(-c3c(Cl)cccc3Cl)noc2C2CC2)nc1C(F)(F)F` [3-(((6-((5-cyclopropyl-3-(2,6-dichlorophenyl)isoxazol-4-yl)methoxy)-2-(trifluoromethyl)pyridin-3-yl)(methyl)amino)methyl)benzoic acid], the EC50 was determined as 0.39 µM.
The result for `CC(C)c1onc(-c2c(Cl)cccc2Cl)c1COc1ccc(N(C)Cc2ccc(C(=O)O)cc2)c(C(F)(F)F)n1` [4-(((6-((3-(2,6-dichlorophenyl)-5-isopropylisoxazol-4-yl)methoxy)-2-(trifluoromethyl)pyridin-3-yl)(methyl)amino)methyl)benzoic acid] reads greater than 1.28 µM.
The result for `CN(Cc1ccc(C(=O)O)cc1)c1ccc(OCc2c(-c3c(Cl)cccc3Cl)noc2C2CC2)nc1C(F)(F)F` [4-(((6-((5-cyclopropyl-3-(2,6-dichlorophenyl)isoxazol-4-yl)methoxy)-2-(trifluoromethyl)pyridin-3-yl)(methyl)amino)methyl)benzoic acid] reads 3.87 µM.
